In PubChem BioAssay (NCI):
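Compound exposure: 48 hours, 5 concentrations, 96-well plates. TGI denotes the concentration required for complete inhibition of growth.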

Assays:
Test in all cases: NCI tumour cell line growth inhibition, 48 h
[1] = system: 786-0 renal
[2] = system: HT29 colon
[3] = system: K-562 leukemia
[4] = system: KM12 colon
[5] = system: MALME-3M melanoma
[6] = system: MDA-MB-435
[7] = system: MOLT-4 leukemia
[8] = system: NCI-H226 lung
[9] = system: NCI-H460 lung
[10] = system: OVCAR-5 ovarian
[11] = system: RXF 393 renal
[12] = system: SF-295 CNS
[13] = system: SK-MEL-5 melanoma
[14] = system: SN12C renal
[15] = system: SNB-19 CNS
[16] = system: SNB-75 CNS
[17] = system: SW-620 colon
[18] = system: U251 CNS
[19] = system: UACC-62 melanoma
[20] = system: SF-539 CNS

Compound | TGI [1] [µM] | TGI [2] [µM] | TGI [3] [µM] | TGI [4] [µM] | TGI [5] [µM] | TGI [6] [µM] | TGI [7] [µM] | TGI [8] [µM] | TGI [9] [µM] | TGI [10] [µM] | TGI [11] [µM] | TGI [12] [µM] | TGI [13] [µM] | TGI [14] [µM] | TGI [15] [µM] | TGI [16] [µM] | TGI [17] [µM] | TGI [18] [µM] | TGI [19] [µM] | TGI [20] [µM]
N#CC12C(=O)N3C(=NC(c4ccccc4)NC3c3ccccc3)C1(C#N)C(c1ccccc1)NC1=C2CCC1 (centres undefined) | > 100 | > 100 | > 100 | > 100 | > 100 | > 100 | > 100 | > 100 | > 100 | > 100 | > 100 | > 100 | > 100 | > 100 | > 100 | > 100 | > 100 | > 100 | > 100 | –
O=C(c1cccc2ccccc12)C1(Br)S(=O)(=O)OCCOS1(=O)=O | > 100 | > 100 | – | > 100 | > 100 | > 100 | > 100 | – | > 100 | > 100 | – | > 100 | > 100 | > 100 | > 100 | – | – | > 100 | – | –
NC(=O)N/N=C1\CCCCc2ccccc21 | > 10 | > 10 | > 10 | > 10 | > 10 | > 10 | > 10 | > 10 | > 10 | > 10 | > 10 | – | – | > 10 | > 10 | – | > 10 | > 10 | – | –
Cc1csc(=S)n1OC(=O)NC1CCCCC1 | > 50 | > 95.5 | > 100 | > 100 | > 100 | – | > 29.4 | > 100 | > 100 | – | > 100 | > 100 | > 100 | > 100 | > 100 | > 100 | > 100 | > 100 | > 67.2 | > 100
O=C(COc1ccc2c(=O)cc(-c3ccccc3)oc2c1)N1CCN(c2ccccc2)CC1 | > 100 | – | > 100 | > 100 | > 100 | – | > 100 | > 100 | > 100 | > 100 | > 100 | > 100 | > 100 | > 100 | > 100 | > 100 | > 100 | > 100 | > 100 | > 100
CC1=C(C(=O)O)N2C(=O)[C@@H](NC(=O)C(c3ccc(O)cc3)N3CSC(=S)N(C(C)C)C3)C2SC1 (some centres undefined) | > 100 | > 100 | > 100 | > 100 | > 100 | – | > 100 | – | > 100 | > 100 | – | > 100 | > 100 | > 100 | > 100 | > 100 | – | > 100 | > 100 | > 100
COc1ccc(C2=Nc3ccccc3NC(=O)C2)cc1 | > 100 | > 100 | > 100 | > 100 | > 100 | – | > 100 | > 100 | > 100 | > 100 | 46.2 | 47.8 | > 100 | > 100 | > 100 | 57.3 | 45 | 82.3 | > 100 | 65.6
CC#CC#C/C=C1/O[C@]2(CCC(OC(C)=O)CO2)[C@@H]2O[C@H]12 (some centres undefined) | 46.9 | 96.1 | > 100 | 47.1 | 35.6 | 81.5 | 57 | 47.4 | 41.8 | 71.2 | 47.5 | > 100 | – | 51.9 | > 100 | > 100 | 95.9 | 39.1 | 36.8 | –
CC(C)[C@H]1CO[C@]2(C)[C@@H]3CN(Cc4ccccc4)C[C@@H]3C(=O)N12 | > 100 | > 100 | > 100 | > 100 | > 100 | – | > 100 | > 100 | > 100 | – | > 100 | > 100 | > 100 | > 100 | > 100 | > 100 | > 100 | > 100 | > 100 | > 100
CC(=O)OCC1OC(OC2C(CSC3OC(COC(C)=O)C(OC(C)=O)C(OC(C)=O)C3OC(C)=O)OC(OC(C)=O)C(OC(C)=O)C2OC(C)=O)C(OC(C)=O)C(OC(C)=O)C1OC(C)=O (centres undefined) | > 100 | > 100 | > 100 | > 100 | > 100 | – | > 100 | > 100 | > 100 | > 100 | – | > 100 | > 100 | > 100 | > 100 | > 100 | > 100 | > 100 | > 100 | > 100
NC(=O)c1cc2cc(Cl)cc(Cl)c2oc1=Nc1ccc(F)cc1 | 25.3 | > 100 | 27.5 | > 100 | 43 | 44.2 | 37.1 | 43.5 | 35.5 | 54.6 | 37 | 39.3 | 31.7 | 38 | 42.3 | 30.3 | > 100 | 41.2 | 63.7 | –
COc1cc(OC)c2c(c1)C(=O)C(CC(C)O)=CC2=O (centres undefined) | 29.9 | 36.8 | 78.8 | 35 | 37.3 | – | 41.8 | 35.4 | 40.4 | 32.3 | 25.3 | 27.4 | 28 | 32.6 | 31.6 | 41 | 31.7 | 31.8 | 25.8 | 32.5
C[C@H](OCc1ccccc1)C(=O)N1CCS(=O)(=O)N2CCC[C@H]2C1=O | > 100 | > 100 | > 100 | > 100 | > 100 | – | > 100 | > 100 | > 100 | > 100 | > 100 | > 100 | > 100 | > 100 | > 100 | > 100 | > 100 | > 100 | > 100 | > 100
